Reference: BindingDB's records for doi:10.1016/s0960-894x(97)10184-6 (Cinc, 1999)

Tests used:
[1] = Tested for inhibition of substrate hydrolysis in the presence of porcine kidney esterase at a concentration of 45 nM
[2] = Tested for inhibition of substrate hydrolysis in the presence of porcine kidney esterase at a concentration of 9 uM
[3] = Tested for inhibition of substrate hydrolysis in the presence of porcine kidney esterase at a concentration of 1 uM

Row | SMILES | Ki [1] [nM] | Ki [2] [nM] | Ki [3] [nM]
1 | COC(=O)/C(OC(C)=O)=C(\NC(=O)[C@@H]1CCCN1C(=O)[C@H](C)NC(=O)[C@H](C)NC(=O)c1ccc(C(=O)NS(=O)(=O)c2ccc(Cl)cc2)cc1)C(C)C [(E)-2-Acetoxy-3-{[(S)-1-((S)-2-{(S)-2-[4-(4-chloro-benzenesulfonylaminocarbonyl)-benzoylamino]-propionylamino}-propionyl)-pyrrolidine-2-carbonyl]-amino}-4-methyl-pent-2-enoic acid methyl ester] | 13 |  | 
2 | COC(=O)CCC(=O)N[C@@H](C)C(=O)N[C@@H](C)C(=O)N1CCC[C@H]1C(=O)N/C(=C(/OC(C)=O)C(=O)OC)C(C)C [(E)-2-Acetoxy-3-[((S)-1-{(S)-2-[(S)-2-(3-methoxycarbonyl-propionylamino)-propionylamino]-propionyl}-pyrrolidine-2-carbonyl)-amino]-4-methyl-pent-2-enoic acid methyl ester] |  | 130 | 130
